One compound from paper PMC6537893 (Biochemistry, 2019) can be followed below.

For this experiment, the target named is T1, GoxA (Pseudoalteromonas luteoviolacea, UniProt A0A161XU12).
T1 sequence (A0A161XU12 1-816): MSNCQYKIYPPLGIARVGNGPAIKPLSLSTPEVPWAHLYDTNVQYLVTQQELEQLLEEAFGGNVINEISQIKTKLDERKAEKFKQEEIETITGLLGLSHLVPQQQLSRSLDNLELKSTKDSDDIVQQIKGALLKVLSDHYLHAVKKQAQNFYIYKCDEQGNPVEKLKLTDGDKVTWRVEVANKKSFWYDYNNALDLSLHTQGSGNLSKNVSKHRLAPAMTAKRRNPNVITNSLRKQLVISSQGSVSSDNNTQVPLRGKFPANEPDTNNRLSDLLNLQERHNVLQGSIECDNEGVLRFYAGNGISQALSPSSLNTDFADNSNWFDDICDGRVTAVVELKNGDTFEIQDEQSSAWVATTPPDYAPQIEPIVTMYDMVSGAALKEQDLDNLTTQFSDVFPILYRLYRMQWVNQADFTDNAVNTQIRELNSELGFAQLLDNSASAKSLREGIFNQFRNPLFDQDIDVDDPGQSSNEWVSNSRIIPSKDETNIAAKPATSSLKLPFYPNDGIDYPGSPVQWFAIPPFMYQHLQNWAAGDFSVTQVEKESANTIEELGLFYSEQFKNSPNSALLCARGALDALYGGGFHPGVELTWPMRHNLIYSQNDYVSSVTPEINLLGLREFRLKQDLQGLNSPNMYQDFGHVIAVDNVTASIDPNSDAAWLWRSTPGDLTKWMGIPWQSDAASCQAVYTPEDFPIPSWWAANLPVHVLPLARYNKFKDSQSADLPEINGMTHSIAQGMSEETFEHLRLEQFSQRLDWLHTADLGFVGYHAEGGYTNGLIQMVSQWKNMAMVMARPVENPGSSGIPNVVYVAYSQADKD
As to the kind of experiment: anaerobic absorbance titration at […] nm, fit to allosteric binding equation.

The structures appear in SMILES notation.

The term Kd denotes the free concentration of one partner at which half of the binding sites on the other are occupied at equilibrium, for simple one-to-one binding. A low value points to tighter binding. The compound `NCC(=O)O` [glycine] had a Kd of 103 ± 3 µM.
